# Data reported in US20240300980A1, “HETEROCYCLIC COMPOUNDS AS KRAS INHIBITOR, AND PREPARATION THEREFOR AND USE THEREOF IN TREATMENT” (SHANGHAI KECHOW PHARMA, INC., priority 2021, published 2024).
# Tested on: AGS cells (KRAS^G12D)
# Test: Detection of cell proliferation in vitro by MTT/MTS method (cell activity experiment)
# Format: cell-based
# Conditions: AGS cells; MTT/MTS; 3 days of drug treatment; read-out: AGS IC50
# Summary of the method: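 KRAS G12D AGS cells seeded at 1000 per well, compound added 24 h later, 0.5% final DMSO. Viability read after 3 days of treatment by MTT (solubilised in DMSO) or MTS, 4 h, absorbance 490 nm. IC50 from dose–response curves versus DMSO control.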
row,SMILES,IC50
1,"C#Cc1c(F)ccc2cc(O)cc(-c3ccc4c(N5C[C@H]6CC[C@@H](C5)[C@@H]6SC)nc(OC[C@@]56CCCN5C[C@H](F)C6)nc4c3F)c12 [Example 129, 5-ethynyl-6-fluoro-4-(8-fluoro-2-(((2R,7aS)-2-fluorotetrahydro-1H-pyrrolizin-7a(5H)-yl)methoxy)-4-((1R, 5S,8R)-8-(methylthio)-3-azabicyclo[3.2.1]octan-3-yl)quinazolin-7-yl)naphthalen-2-ol]",> 2.5 µM
2,"CSc1c(F)ccc2cc(O)cc(-c3ccc4c(N5C[C@H]6CC[C@@H](C5)N6)nc(OC[C@@]56CCCN5C[C@H](F)C6)nc4c3F)c12 [Example 336, 4-(4-((1R,5S)-3,8-diazabicyclo[3.2.1]octan-3-yl)-8-fluoro-2-(((2R,7aS)-2-fluorotetrahvdro-1H-pyrrolizin-7a(5H)-yl)methoxy)quinazolin-7-yl)-6-fluoro-5-(methylthio)naphthalen-2-ol]",0.0099 µM

# Same assay, conditions: Homo sapiens, AGS, 72 h, AGS cells; MTT/MTS; 3 days of drug treatment; read-out: AGS IC50
row,SMILES,IC50
1,"C#Cc1c(F)ccc2cc(O)cc(-c3ncc4c(-c5cnn(C(=O)CO)c5)nc(OC[C@@]56CCCN5C[C@H](F)C6)nc4c3F)c12 [Example 87, 1-(4-(7-(8-ethynyl-7-fluoro-3-hydroxynaphthalen-1-yl)-8-fluoro-2-(((2R, 7aS)-2-fluorotetrahydro-1H-pyrrolizin-7a(5H)-yl)methoxy)pyrido[4,3-d]pyrimidin-4-yl)-1H-pyrazol-1-yl)-2-hydroxyethan-1-one]",> 10 µM
2,"C#Cc1c(F)ccc2cc(O)cc(-c3ccc4c(N5CC(C(C)(C)N)C5)nc(OC[C@@]56CCCN5C[C@H](F)C6)nc4c3F)c12 [Example 212, 4-(4-(3-(2-aminopropan-2-yl)azetidin-1-yl)-8-fluoro-2-(((2R,7aS)-2-fluorotetrahydro-1H-pyrrolizin-7a(5H)-yl)methoxy)quinazolin-7-yl)-5-ethynyl-6-fluoronaphthalen-2-ol]",0.419 µM
3,"CSC1CCc2cc(O)cc(-c3ncc4c(N5C[C@H]6CC[C@@H](C5)N6)nc(OC[C@@]56CCCN5C[C@H](F)C6)nc4c3F)c21 (stereo partly drawn) [Example 354, 7-(4-((1R,5S)-3,8-diazabicyclo[3.2.1]octan-3-yl)-8-fluoro-2-(((2R,7aS)-2-fluorotetrahydro-1H-pyrrolizin-7a(5H)-yl)methoxy)pyrido[4,3-d]pyrimidin-7-yl)-1-(methylthio)-2,3-dihydro-1H-inden-5-ol]",0.025 µM
4,"CC1CCCc2cc(O)cc(-c3cc4nc(OC[C@@]56CCCN5C[C@H](F)C6)nc(N5C[C@H]6CC[C@@H](C5)N6)c4c4occc34)c21 (stereo partly drawn) [Example 387, 4-(9-((1R,5S)-3,8-diazabicyclo[3.2.1]octan-3-yl)-7-(((2R,7aS)-2-fluorotetrahydro-1H-pyrrolizin-7a(5H)-yl)methoxy)furo[2,3-f]quinazolin-4-yl)-5-methyl-5,6,7,8-tetrahydronaphthalen-2-ol]",0.481 µM
5,"C#Cc1cccc2cc(O)cc(-c3ncc4c(N5C[C@H]6CC[C@@H](C5)O6)nc(OC[C@@]56CCCN5C[C@H](F)C6)nc4c3F)c12 [Example 11, 4-(4-((1R,5S)-8-oxa-3-azabicyclo[3.2.1]octan-3-yl)-8-fluoro-2-(((2R,7aS)-2-fluorotetrahydro-1H-pyrrolizin-7a(5H)-yl)methoxy)pyrido[4,3-d]pyrimidin-7-yl)-5-ethynylnaphthalen-2-ol]",0.39 µM
6,"CSC1CCCc2cc(O)cc(-c3ncc4c(N5C[C@H]6CC[C@@H](C5)N6)nc(OC[C@@]56CCCN5C[C@H](F)C6)nc4c3F)c21 (stereo partly drawn) [Example 426, 4-(4-((1R,5S)-3,8-diazabicyclo[3.2.1]octan-3-yl)-8-fluoro-2-(((2R,7aS)-2-fluorotetrahydro-1H-pyrrolizin-7a(5H)-yl)methoxy)pyrido[4,3-d]pyrimidin-7-yl)-5-(methylthio)-5,6,7,8-tetrahydronaphthalen-2-ol]",0.015 µM
7,"C#Cc1c(F)ccc2cc(O)cc(-c3ccc4c(N5CC6CC(C5)N6)nc(OC[C@@]56CCCN5C[C@H](F)C6)nc4c3F)c12 [Example 107, 4-(4-(3,6-diazabicyclo [3.1.1]heptan-3-yl)-8-fluoro-2-(((2R,7aS)-2-fluorotetrahydro-1H-pyrrolizin-7a(5H)-yl)methoxy)quinazolin-7-yl)-5-ethynyl-6-fluoronaphthalen-2-ol]",0.105 µM
8,"CCc1c(F)ccc2cc(O)cc(-c3ccc4c(N5C[C@H]6CC[C@@H](C5)N6)c(C(F)(F)F)c(OC[C@@]56CCCN5C[C@H](F)C6)nc4c3F)c12 [Example 186, 4-(4-((1R,5S)-3,8-diazabicyclo[3.2.1]octan-3-yl)-8-fluoro-2-(((2R,7aS)-2-fluorotetrahydro-1H-pyrrolizin-7a(5H)-yl)methoxy)-3-(trifluoromethyl)quinolin-7-yl)-5-ethyl-6-fluoronaphthalen-2-ol]",1.42 µM
9,"C#Cc1c(F)ccc2cc(O)cc(-c3ncc4c(N5CC6CCC(C5)C6F)nc(OC[C@@]56CCCN5C[C@H](F)C6)nc4c3F)c12 (stereo partly drawn) [Example 34, 5-ethynyl-6-fluoro-4-(8-fluoro-4-((1R,5S, 8R)-8-fluoro-3-azabicyclo [3.2.1]octan-3-yl)-2-(((2R,7aS)-2-fluorotetrahydro-1H-pyrrolizin-7a(5H)-yl)methoxy)pyrido[4,3-d]pyrimidin-7-yl) naphthalen-2-ol]",> 2.5 µM
10,"CCc1nccc2cc(O)cc(-c3ccc4c(N5C[C@H]6CC[C@@H](C5)N6)nc(OC[C@@]56CCCN5C[C@H](F)C6)nc4c3F)c12 [Example 344, 8-(4-((1R,5S)-3,8-diazabicyclo[3.2.1]octan-3-yl)-8-fluoro-2-(((2R,7aS)-2-fluorotetrahydro-1H-pyrrolizin-7a(5H)-yl)methoxy)quinazolin-7-yl)-1-ethylisoquinolin-6-ol]",0.035 µM
11,"N#Cc1c(OC[C@@]23CCCN2C[C@H](F)C3)nc2cc(-c3cccc4ccc(F)c(Cl)c34)ccc2c1N1C[C@H]2CC[C@@H](C1)N2 [Example 170, 4-((1R,5S)-3,8-diazabicyclo[3.2.1]octan-3-yl)-7-(8-chloro-7-fluoronaphthalen-1-yl)-2-(((2R,7aS)-2-fluorotetrahydro-1H-pyrrolizin-7a(5H)-yl)methoxy)quinoline-3-carbonitrile]",1.04 µM
12,"CCc1c(F)ccc2cc(O)cc(-c3ccc4c(N5C[C@H]6CC[C@@H](C5)C6(F)F)nc(OC[C@@]56CCCN5C[C@H](F)C6)nc4c3F)c12 [Example 120, 4-(4-((1R,5S)-8,8-difluoro-3-azabicyclo [3.2.1]octan-3-yl)-8-fluoro-2-(((2R,7aS)-2-fluorotetrahydro-1H-pyrrolizin-7a(5H)-yl)methoxy)quinazolin-7-yl)-5-ethyl-6-fluoronaphthalen-2-ol]",> 2.5 µM
13,"CCC1C(=O)Cc2cc(O)cc(-c3ncc4c(N5C[C@H]6CC[C@@H](C5)N6)nc(OC[C@@]56CCCN5C[C@H](F)C6)nc4c3F)c21 (stereo partly drawn) [Example 263, 7-(4-((1R,5S)-3,8-diazabicyclo[3.2.1]octan-3-yl)-8-fluoro-2-(((2R,7aS)-2-fluorotetrahydro-1H-pyrrolizin-7a(5H)-yl)methoxy)pyrido[4,3-d]pyrimidin-7-yl)-1-ethyl-5-hydroxy-1,3-dihydro-2H-inden-2-one]",> 10 µM
14,"C#Cc1c(F)ccc2cc(O)cc(-c3ncc4c(C5C[C@H]6CC[C@@H](C5)N6)nc(OC[C@@]56CCCN5C[C@H](F)C6)nc4c3F)c12 (stereo partly drawn) [Example 79, 4-(4-((1R,5S)-8-azabicyclo[3.2.1]octan-3-yl)-8-fluoro-2-(((2R,7aS)-2-fluorotetrahydro-1H-pyrrolizin-7a(5H)-yl)methoxy)pyrido[4,3-d]pyrimidin-7-yl)-5-ethynyl-6-fluoronaphthalen-2-ol]",> 2.5 µM
